Reference: paper PMC6832265 (Molecules, 2019)
“Also recorded” adds a separate entry of the source. Read-outs that look alike come from different tables or passages of the source. Blank lines part the entries; values can stand above or below the compound they belong to.

Experiments:
mice = details: ref Registry of Toxic Effects of Chemical Substances, cited from earlier work
Lewis lung carcinoma = tested on: Lewis lung carcinoma; parameters: method as in PMID 30903487; details: Lewis lung carcinoma models; cited from earlier work
Tdp1 [1] = target: T1, Tdp1 (Homo sapiens, UniProt Q9NUW8); experiment: Real-time detection of Tdp1 activity (5'-FAM/3'-BHQ1 oligonucleotide biosensor); type: biochemical; details: 1.5 nM Tdp1, 50 nM oligonucleotide substrate, 26 °C
T1 construct: made in house; host or cells: Escherichia coli
In short: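 Recombinant human Tdp1 (E. coli-expressed, 1.5 nM) with 50 nM 16-mer ssDNA 5'-FAM/3'-BHQ1 biosensor in 50 mM Tris-HCl, 50 mM NaCl, 7 mM β-mercaptoethanol, 26 °C; fluorescence (Ex485/Em520) read each minute. Inhibition from linear-phase slope (0–7 min) vs 1.5% DMSO control; IC50 from six-point curves, ≥2 independent experiments.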

[2] = target: T2, recombinant Tdp1 (residues 149–608) (Homo sapiens, UniProt Q9NUW8); experiment: Intrinsic tryptophan fluorescence quenching binding assay; details: 10 µM Tdp1, 20 mM Tris, 250 mM NaCl, pH 8; triplicate
T2 construct: recombinant Tdp1 (residues 149–608) was obtained from GenScript; host or cells: E. coli BL21(DE3)
Description: The binding of the synthesized compounds to recombinant Tdp1 was also tested (Table 1 and Table 2) by using an intrinsic tryptophan fluorescence quenching assay. […] As our compounds are aromatic in nature, there is a possibility that they may bind to both the active site as well as non-specifically to the DNA/peptide binding pockets. Nonetheless, our results confirmed that the compounds were indeed binders of Tdp1, thus complementing our inhibition data.
pET-28a(+) plasmid encoding recombinant Tdp1 (residues 149–608) was obtained from GenScript. E. coli BL21(DE3) was used for recombinant protein production. Protein production was induced with 1 mM IPTG at 28 °C with overnight incubation. Tdp1 was purified using affinity and size exclusion chromatography. Fluorescence was measured using a PerkinElmer EnSpire Multimode Reader. Tdp1 concentration was 10 μM with varying compound concentrations. The buffer was 20 mM Tris and 250 mM NaCl (pH 8). The excitation wavelength was 280 nm and intrinsic fluorescence was measured at 350 nm. Control experiments with Tdp1 or the compound on its own were also conducted. Background fluorescence arising from the compounds was subtracted from the final spectrum. The total volume per well was 30 μL. The dissociation constant (KD) was calculated using Equation (1), which takes non-specific binding into account. y = Bmaxx/(KD + x) + Nsx(1) where y denotes the changes in fluorescence intensity; x denotes the concentration of the compounds; Bmax denotes the maximum changes in fluorescence intensity; and Ns is a scaling factor for non-specific binding. Experiments were conducted in triplicate.

[3] = MTT test, intrinsic cytotoxicity; type: cell-based; details: human, HeLa cells (cervical carcinoma), compound alone
Description: First, we studied the intrinsic cytotoxicity of the compounds against HeLa cells (cervical carcinoma). For experiments on cells, we selected compounds which combined high inhibitory activity with good chemical accessibility. The MTT test data are shown in Figure 4 for compounds from both the heteroarylidene-hydrazinotiazole and arylidene-hydrazinotiazole subclasses. […] Heteroarylidene-hydrazinothiazole derivatives (+)- and (−)-16f, containing a bromothiophene residue, also have low toxicity (CC50 about 80 µM), while the 16d pair, containing a nitro group that is a known toxicophore, suppressed cell growth at a concentration of 20 µM.
Analysis of the intrinsic toxicity of the compounds was examined against human cell line HeLa (cervical cancer) using a standard MTT test by colorimetric measurement of the amount of formazan converted from 3-(4,5-dimethylthiazol-2-yl)-2,5-diphenyl-2H-tetrazolium bromide in cells exposed to the compounds. […] After formation of a 30–50% monolayer, tested compounds were added to the medium (the volume of added reagents was 1/100 of the total volume of the culture medium, the amount of DMSO was 1% of the final volume), and the cell culture was monitored for three days. […]

HeLa cells = experiment: MTT test, combination of Tdp1 inhibitors with topotecan; type: cell-based, human
Tdp1 [4] = target: T1, Tdp1; details: cited from earlier work
Top1 = tested on: Top1; parameters: method as in PMID 28418653; details: cited from earlier work
Tdp2 = tested on: Tdp2; parameters: method as in PMID 28418653; details: cited from earlier work

T2 sequence (Q9NUW8 149-608): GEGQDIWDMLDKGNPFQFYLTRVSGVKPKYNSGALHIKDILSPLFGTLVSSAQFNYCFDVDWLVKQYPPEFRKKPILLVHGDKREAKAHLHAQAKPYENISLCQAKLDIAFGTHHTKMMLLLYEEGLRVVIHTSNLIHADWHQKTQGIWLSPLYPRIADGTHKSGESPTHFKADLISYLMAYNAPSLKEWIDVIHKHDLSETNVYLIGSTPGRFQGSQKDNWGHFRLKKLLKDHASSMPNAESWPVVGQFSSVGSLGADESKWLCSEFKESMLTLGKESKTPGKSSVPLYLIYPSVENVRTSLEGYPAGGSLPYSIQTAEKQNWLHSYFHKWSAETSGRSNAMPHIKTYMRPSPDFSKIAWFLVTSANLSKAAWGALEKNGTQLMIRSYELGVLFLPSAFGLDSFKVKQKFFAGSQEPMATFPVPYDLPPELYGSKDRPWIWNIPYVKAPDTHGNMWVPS
T1 sequence (Q9NUW8 whole entry): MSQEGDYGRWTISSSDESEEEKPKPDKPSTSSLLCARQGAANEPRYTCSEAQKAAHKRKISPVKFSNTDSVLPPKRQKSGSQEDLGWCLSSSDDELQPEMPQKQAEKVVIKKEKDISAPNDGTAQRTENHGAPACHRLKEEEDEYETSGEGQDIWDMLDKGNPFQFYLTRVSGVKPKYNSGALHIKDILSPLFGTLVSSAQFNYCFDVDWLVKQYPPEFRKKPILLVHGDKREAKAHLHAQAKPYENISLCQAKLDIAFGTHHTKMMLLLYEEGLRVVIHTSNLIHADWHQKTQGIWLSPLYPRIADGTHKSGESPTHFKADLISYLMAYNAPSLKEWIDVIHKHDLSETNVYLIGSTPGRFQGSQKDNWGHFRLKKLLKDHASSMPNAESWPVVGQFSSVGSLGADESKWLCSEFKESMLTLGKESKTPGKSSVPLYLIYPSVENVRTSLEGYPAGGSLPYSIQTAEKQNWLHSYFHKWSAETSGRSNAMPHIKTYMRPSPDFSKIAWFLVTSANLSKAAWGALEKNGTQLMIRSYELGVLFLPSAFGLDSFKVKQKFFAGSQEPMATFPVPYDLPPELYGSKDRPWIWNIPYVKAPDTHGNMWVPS

Compound: 2,6-diacetyl-7,9-dihydroxy-8,9b-dimethyl-1,3(2H,9bH)-dibenzo-furandione [Usnic acid]
LD50 (mice; mice): 838 mg/kg
toxicity class (mice): class III toxicity (moderately toxic)

Compound: CC(=O)c1c(O)c(C)c(O)c2c1OC1=CC(=O)/C(=C(/C)NCCCc3cc(C(C)(C)C)c(O)c(C(C)(C)C)c3)C(=O)[C@@]12C [9b]
metastasis growth (Lewis lung carcinoma): reduces metastasis growth

IC50 (Tdp1 [1]): 0.088 ± 0.003 µM
Kd [2]: 95 ± 11 µM
Compound: CC(=O)C1=C(O)C=C2Oc3c(-c4csc(N/N=C/c5ccc(Br)s5)n4)c(O)c(C)c(O)c3[C@@]2(C)C1=O [(+)-16f, (2R)-4-Acetyl-5,11,13-trihydroxy-2,12-dimethyl-10-{2-[(E)-2-[(5-bromothiophen-2-yl)methylidene]hydrazin-1-yl]-1,3-thiazol-4-yl}-8-oxatricyclo[7.4.0.0^2,7]trideca-1(9),4,6,10,12-pentaen-3-one]
CC50 at 3 days [3]: ~80 µM

IC50 (Tdp1 [1]): 0.026 ± 0.004 µM
Kd [2]: 131 ± 15 µM
Compound: COc1ccc(/C=N/Nc2nc(-c3c(O)c(C)c(O)c4c3OC3=CC(O)=C(C(C)=O)C(=O)[C@@]34C)cs2)cc1COc1cccc(F)c1 [(+)-17b, (2R)-4-Acetyl-10-{2-[(E)-2-({3-[(3-fluorophenoxy)methyl]-4-methoxyphenyl}methylidene)hydrazin-1-yl]-1,3-thiazol-4-yl}-5,11,13-trihydroxy-2,12-dimethyl-8-oxatricyclo[7.4.0.0^2,7]trideca-1(9),4,6,10,12-pentaen-3-one]
effect of the order of administration on the synergistic effect with topotecan (HeLa cells; 30 minutes between additions): the simultaneous administration of drugs reduced the synergistic effect; also recorded: led to worse results when compared with simultaneous administration

IC50 (Tdp1 [1]): 0.043 ± 0.001 µM
Kd [2]: 148 ± 9 µM
Compound: CC(=O)C1=C(O)C=C2Oc3c(-c4csc(N/N=C/c5ccc(Br)s5)n4)c(O)c(C)c(O)c3[C@]2(C)C1=O [(−)-16f, (2S)-4-Acetyl-5,11,13-trihydroxy-2,12-dimethyl-10-{2-[(E)-2-[(5-bromothiophen-2-yl)methylidene]hydrazin-1-yl]-1,3-thiazol-4-yl}-8-oxatricyclo[7.4.0.0^2,7]trideca-1(9),4,6,10,12-pentaen-3-one]
CC50 at 3 days [3]: ~80 µM

Compound: CCCCN(CCCC)CC(=O)Nc1cc(C(F)(F)F)cc2c1SSSSS2 [compound 2]
IC50 (Tdp1 [4]; read-out: IC50): 0.2 µM

Compound: COc1cnc2c(c1)C(=O)c1c-2n(CCCNC2=NCCS2)c(=O)c2cc([N+](=O)[O-])ccc12 [compound 4]
IC50 (Tdp1 [4]; read-out: IC50 (Tdp1)): 1 to 12 µM
IC50 (Top1): < 1 µM
IC50 (Tdp2): 12 to 37 µM

Compound: CC1(C)[C@H]2CC=C(COc3ccc4c5c(c(=O)oc4c3)CCC5)[C@@H]1C2 [compound 7]
IC50 (Tdp1 [4]; read-out: IC50): 0.67 µM

Compound: CC[C@@]1(O)C(=O)OCc2c1cc1n(c2=O)Cc2cc3c(CN(C)C)c(O)ccc3nc2-1 [topotecan, reference compound]
CC50 (HeLa cells; Homo sapiens, read-out: CC50 of topotecan alone): 6 µM

IC50 (Tdp1 [1]): 0.04 ± 0.003 µM
Kd [2]: 771 ± 46 µM
Compound: (2S)-4-Acetyl-5,11,13-trihydroxy-2,12-dimethyl-10-{2-[(E)-2-[(thiophen-3-yl)methylidene] hydrazin-1-yl]-1,3-thiazol-4-yl}-8-oxatricyclo[7.4.0.0^2,7]trideca-1(9),4,6,10,12-pentaen-3-one amine [(−)-16j]

IC50 (Tdp1 [1]): 0.03 ± 0.011 µM
Kd [2]: 130 ± 8 µM
Compound: (2S)-4-Acetyl-10-{2-[(E)-2-({3-[(3,4-difluorophenoxy)methyl]-4-methoxyphenyl}methylidene)hydrazin-1-yl]-1,3-thiazol-4-yl}-5,11,13-trihydroxy-2,12-dimethyl-8-oxatricyclo[7.4.0.0^2,7]trideca-1(9),4,6,10,12-pentaen-3-one [(−)-17e]
